Experimental data reported in patent US20200276211A1, “COMPOUNDS FOR TREATING NEAR VISION DISORDERS” (VIEWPOINT THERAPEUTICS, INC., priority 2017, published 2020).
Where two headings read alike, the source gives them in different places.

How the values were obtained:
[1] = molecular target: T1, recombinant alpha-crystallin core domain (ACD) of cryAB protein (residues 68-153) (Homo sapiens, UniProt P02511); assay: Differential scanning fluorimetry (DSF), protein thermal stability change; format: binding; conditions: SYPRO orange
T1 construct: alpha-crystallin core domain (ACD) of cryAB protein (residues 68-153)
T1 sequence (P02511 68-153): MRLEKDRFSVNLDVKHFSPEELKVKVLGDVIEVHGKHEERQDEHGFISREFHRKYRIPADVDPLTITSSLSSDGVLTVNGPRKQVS
Description: 2.4 μL of 10 mM compound stocks in DMSO were added to the wells of a 96-well plate containing 51.6 μL of 7 μM recombinant alpha-crystallin core domain (ACD) of cryAB protein (residues 68-153) in DSF buffer (50 mM Tris-HCl, 100 mM NaCl, 0.5 mM ZnCl2, 0.5 mM MgCl2, 0.5 mM CaCl2, pH8.0), and subsequently 6 μL 10× SYPRO orange protein gel stain (Invitrogen) was added for a final volume of 60 μL per well. Each well was mixed, and then 10 μL was added in quadruplicates to a MicroAmp Optical 384-well reaction plate with barcode (ThermoFisher). The plate was sealed with a MicroAmp Optical adhesive film (ThermoFisher), centrifuged at 1,000×g for 2 min, and loaded into a QuantStudio 6 Flex real-time PCR system (Applied Biosystems). The DSF assay was performed by heating the plate from 30° C. to 80° C. with 0.5° C. increments per cycle over 100 cycles. Each cycle was held for 90 s after reaching the temperature, and the fluorescent signal (520 nm excitation/558 nm emission) was measured.
The data curve was fitted using a Boltzmann model (GraphPad Prism Version 7) for a fitting range from 25° C. to the temperature at which the fluorescence signal was highest plus 3-5° C. The Tm was determined to be the temperature at the midpoint between the highest and lowest fluorescent signals on the curve. Results of the assay for compounds 1.18, 1.21 and 1.25 are in the following table and FIG. 1.

[2] = Chemical stability in PBS buffer; format: physicochemical
Description: 10 mM compound working solutions were made by adding 10 μL of a 50 mM DMSO stock solution in 40 μL methanol. To make 20 μM compound working solutions, 1 μL of a 10 mM stock solution is added to 499 μL of methanol. Internal standard and quenching solutions were prepared by dissolving 1 mg/mL of terfenadine or tolbutamide in appropriate amounts of DMSO. A quenching solution was prepared containing 25 ng/ml terfenadine plus 50 ng/ml tolbutamide by diluting both stock solutions together in a 1:1 mixture of methanol:acetonitrile. Phosphate buffered saline (PBS) solutions at pH5 and pH7 were prepared by adjusting the pH of stock PBS with concentrated hydrochloric acid. To tubes labeled with a pre-determined time point (0, 5, 15, 30, 60, 120 min) was added 2 μL of 20 μM compound working solution. In each tube, 38 μL of PBS buffer was added to the vial, vortexed, and incubated at 37° C. for the corresponding time. After incubation, 300 μL of the quenching solution containing internal standard was added to the tube and vortexed to mix. The sample was centrifuged at 4000 rpm for 15 min, and 100 μL of supernatant transferred to a 0.65 ml tube for LC/MS analysis. Each compound and timepoint was analyzed by reverse phase HPLC with MS detection performed using a Sciex API 4500 Qtrap.

[3] = Plasma stability (rabbit); format: in vitro ADME; conditions: 37° C., read-out: Plasma stability (rabbit) t ½
Description: (§1) A 4 mM compound stock solution was prepared by dissolving the appropriate amount of compound in MeOH, then a […] was prepared by adding 2 μL aforementioned 4 mM stock solution in 78 μL DMSO. A 10 mM control stock solution was prepared by dissolving the appropriate amount of tetracaine in DMSO, then a 10 μM control working solution was prepared by diluting the stock in DMSO. A 1 mg/ml terfenadine mixed with 2 mg/mL tolbutamide stock solution was prepared by dissolving an appropriate amount of each in DMSO, then a 1 ng/mL terfenadine mixed with 2 ng/mL tolbutamide internal standard solution was prepared by diluting the stock solution in methanol:acetonitrile (1:1, v/v). Both stock and internal standard solutions were stored at 4° C. Whole blood was centrifuged (obtained from in life group or donors) at 4000 rpm at 4° C. for 15 min to obtain plasma. Plasma was stored at −80° C. for future use. Before use, plasma was pre-warmed at 37° C. in a water bath for 15 min (500 μL per compound or control). After warming, 5 μL compound or control was added into 495 μL plasma, then vortexed to mix. […] The MS detection was performed using a Sciex API 4000 Qtrap and 6500 Plus instrument, and each compound was analyzed by reverse phase HPLC.

Plasma stability (human) = format: in vitro ADME; conditions: 37° C., read-out: Plasma stability (human) t ½
Description: as §1

[4] = Solubility remark in amyloid disaggregation assay; format: physicochemical; conditions: assay solution, 5% DMSO
Description: The procedure used to evaluate disassembly of amyloids in ex vivo cataractous solutions was adapted from Chemerovski-Glikman et al., Scientific Reports 8, Article number: 9341 (2018). Nuclear and cortical lens tissue from human donors (92F, 96M) was homogenized in PBS with protease inhibitor for 60 seconds on ice. The protein concentration of the lysate was measured by Bicinchoninic Acid Assay (Pierce BCA Protein Assay Kit, ThermoFisher), and then the lysate was diluted to a total protein concentration of 0.075 mg/mL. Thioflavin T dye (Sigma-Aldrich) was added to a final concentration of 1 μM. […] After incubation with orbital shaking at 37° C., the fluorescence was read every two hours for 94 hours at an excitation wavelength of 440 nm and emission wavelength of 485 nm. Results of the assay for compounds 1.18, 1.21, 1.25 or control are in FIG. 3.

[5] = in water; cited from earlier work
[6] = PBS pH 5, 37° C., read-out: Chem stability (t ½ @ pH = 5)
[7] = PBS pH 7, 37° C., read-out: Chem stability (t ½ @ pH = 7)

SMILES: C[C@H](CCCC(C)(C)O)[C@H]1CC[C@H]2[C@@H]3CC=C4C[C@@H](OC(=O)CCC(=O)O)CC[C@]4(C)[C@H]3CC[C@]12C [Compound 1.18]
- Δ Tm (° C.) Mean (n = 2) [1]: −5.7 °C
- half-life at 1 µM [2, 6]: > 8.33 h
- half-life at 1 µM [2, 7]: > 8.33 h
- half-life at 0.1 µM [3]: > 8.33 h
- half-life at 0.1 µM (Plasma stability (human)): > 8.33 h
- solubility (in words) [4]: limited solubility

SMILES: C[C@H](CCCC(C)(C)O)[C@H]1CC[C@H]2[C@@H]3CC=C4C[C@@H](OC(=O)CC[C@H](N)C(=O)O)CC[C@]4(C)[C@H]3CC[C@]12C [Compound 1.21]
- Δ Tm (° C.) Mean (n = 2) [1]: −1.7 °C

SMILES: C[C@H](CCCC(C)(C)O)[C@H]1CC[C@H]2[C@@H]3CC=C4C[C@@H](OC(=O)OCC[N+](C)(C)C)CC[C@]4(C)[C@H]3CC[C@]12C.[I-] [Compound 1.25]
- Δ Tm (° C.) Mean (n = 2) [1]: −1.8 °C
- half-life at 1 µM [2, 6]: > 8.33 h
- half-life at 1 µM [2, 7]: > 8.33 h
- half-life at 0.1 µM [3]: > 8.33 h
- half-life at 0.1 µM (Plasma stability (human)): > 8.33 h

SMILES: CC(C)CCC[C@@H](C)[C@H]1CC[C@H]2[C@@H]3CC=C4C[C@@H](O)CC[C@]4(C)[C@H]3CC[C@]12C [cholesterol]
- aqueous solubility [5]: less than 0.5 mg/100 mL
